Test results: US20220163539A1, “NLRP3 INFLAMMASOME INHIBITION” (Inflazome Limited, priority 2019, published 2022)
pIC50: −log10 of the molar value.

Key:
[1] = target: T1, NLRP3 in NLRP3 over-expressing HEK293 cell lysate supernatants (Homo sapiens, UniProt Q96P20); experiment: Radioligand binding assay with [3H]-MCC7840, gel filtration; conditions: 200 nM [3H]-MCC7840, 700 μg protein, 4 hrs at RT; minimum of curve fit constrained; read-out: estimated IC50, competition with [3H]-MCC7840
T1 construct: expressed in transfected cells; host or cells: HEK293
T1 sequence (Q96P20 whole entry): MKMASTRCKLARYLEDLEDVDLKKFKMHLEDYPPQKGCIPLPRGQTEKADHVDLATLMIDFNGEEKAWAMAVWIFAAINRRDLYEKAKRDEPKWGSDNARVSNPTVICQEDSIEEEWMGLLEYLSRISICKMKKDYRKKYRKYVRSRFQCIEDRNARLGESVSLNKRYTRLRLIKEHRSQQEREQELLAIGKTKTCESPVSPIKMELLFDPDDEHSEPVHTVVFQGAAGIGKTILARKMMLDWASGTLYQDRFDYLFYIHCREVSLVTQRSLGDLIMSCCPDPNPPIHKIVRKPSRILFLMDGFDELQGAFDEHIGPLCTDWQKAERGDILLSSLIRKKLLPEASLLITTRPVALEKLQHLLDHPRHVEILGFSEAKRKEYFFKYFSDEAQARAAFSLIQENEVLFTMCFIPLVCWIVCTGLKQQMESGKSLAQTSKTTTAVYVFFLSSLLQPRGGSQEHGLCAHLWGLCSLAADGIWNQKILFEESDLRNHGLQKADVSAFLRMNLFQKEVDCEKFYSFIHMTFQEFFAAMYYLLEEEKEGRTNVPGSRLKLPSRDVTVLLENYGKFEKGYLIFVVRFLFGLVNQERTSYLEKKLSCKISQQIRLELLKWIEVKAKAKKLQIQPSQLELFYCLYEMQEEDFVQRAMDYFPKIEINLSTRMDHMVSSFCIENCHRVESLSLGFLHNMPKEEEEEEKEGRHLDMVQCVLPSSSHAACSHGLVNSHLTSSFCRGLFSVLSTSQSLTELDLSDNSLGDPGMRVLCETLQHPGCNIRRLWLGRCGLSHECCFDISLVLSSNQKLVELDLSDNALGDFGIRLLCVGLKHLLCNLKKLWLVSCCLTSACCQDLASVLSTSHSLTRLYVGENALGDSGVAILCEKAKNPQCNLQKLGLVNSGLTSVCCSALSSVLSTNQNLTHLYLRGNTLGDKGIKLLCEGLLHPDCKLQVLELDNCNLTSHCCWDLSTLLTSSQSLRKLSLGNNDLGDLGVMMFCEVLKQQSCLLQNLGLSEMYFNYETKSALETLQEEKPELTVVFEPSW
Experimental: As NLRP3 is a cytoplasmic protein a conventional filtration binding assay method could not be used to separate free vs bound radiolabel from cell lysates.
Cell pellets were defrosted over ice and diluted one in two with binding buffer. […] Supernatant was removed and stored at −20° C. Protein determination was performed on these samples using the Pierce BCA kit following the manufacturer's instructions.
Binding buffer volume was dependent on the volume of supernatant used in the assay. Samples were combined together and incubated, with shaking, for 4 hrs @ room temperature.
Briefly, the PD MultiTrap plates were spun down at room temperature (RT), 800 g, for 1 minute to remove the storage buffer. They were washed five times with 300 μl/well binding buffer, 800 g, RT for 1 minute.
80 μl of sample was added per well, spun down at 400 g for 1 minute. 50 μl of the flow through was added to 145 μl Microscint-20 in Optiplates. The plate was shaken for approximately 30 minutes at RT prior to reading in a Perkin Elmer TopCount. Data was analysed using GraphPad Prism.
The specific binding was determined by subtracting the non-specific binding from the total binding.

[2] = tested on: IL-1β release from THP-1 cells; experiment: IL-1β release assay in THP-1 cells (LPS and nigericin stimulation); conditions: Homo sapiens, THP-1, read-out: IC50 for inhibition of release of IL-1β from THP-1 cells
Text: An IL-1β release assay in THP-1 cells was used to assess the ability of the different molecules to inhibit inflammasome-mediated cytokine secretion.

Row | SMILES | pIC50 [1] | pIC50 [2]
1 | Nc1ncnc2c1ncn2[C@@H]1O[C@H](COP(=O)(O)OP(=O)(O)OP(=O)(O)O)[C@@H](O)[C@H]1O [ATP] | 1.12 | 
2 | CC(C)(O)c1coc(S(=O)(=O)NC(=O)Nc2c3c(cc4c2CCC4)CCC3)c1 [MCC950] |  | 7.57
3 | CC(C)n1ccc(S(=O)(=O)NC(=O)Nc2c3c(cc4c2CCC4)CCC3)n1 [MCC7840] |  | 6.96
